In patent US6117661A, “Mutant mono-oxygenase cytochrome P450cam” (BG plc, priority 1995, dated 2000):
Where a chain is given by its changes, count along the chain named. Names and notes keep the numbering of the source. Values joined by “and” are separate entries in the source; they are usually repeats but may differ in a detail not shown here. Equal values may be shown once. Read-outs that look alike come from different tables or passages of the source.

Columns and labels:
[1] = target: T1, P450cam WT (Pseudomonas putida, UniProt P00183); assay: Product distribution following oxidation of substrates (GC); type: biochemical, P. putida; conditions: for Products (%) WT: label = product
T1 construct: reconstituted with putidaredoxin and putidaredoxin reductase
Experimental: (§1) A buffered solution (50 mM Tris.HCI, pH 7.4), typically 3 ml in volume, containing 10 uM putidaredoxin, 2 uM putidaredoxin reductase, 1 uM cytochrome P-450cam mono-oxygenase (wild-type or mutant), 200 mM KCI, 50 ug/ml bovine liver catalase (Sigma), and 1 mM target organic compound such as cyclohexylbenzene (added as a 0.1 M stock in ethanol) was preincubated at 30° C. for 5 minutes. The enzymatic reaction was initiated by adding NADH to a total concentration of 2 mM. Further four aliquots of NADH (to increase the NADH concentration by 1 mM each time) were added in intervals of 10 minutes, and 30 minutes into the incubation one aliquot of substrate (to increase the concentration by 1 mM) was also added. The reaction was quenched after 60 minutes by adding 0.5 ml chloroform and vortexing the mixture. The phases were separated by centrifugation (4000 g) at 4° C. The chloroform layer was analyzed by gas chromatography.
(§2) For many substrate compounds such as cyclohexylbenzene for which not all the P-450cam-mediated oxidation products are commercially available, the chloroform extracts are evaporated to dryness under a stream of nitrogen. The residues were extracted with hexane and the oxidation products separated by high performance liquid chromatography, eluting with a hexane/isopropanol gradient. The purified products were then identified by mass spectroscopy and particularly nuclear magnetic resonance spectroscopy.
(§3) The NADH concentration can be monitored at 340 nm and, in all cases, more substrates and NADH are added during the incubation.

[2] = target: T2, P450cam active site mutant Y96A (also C334A) (Pseudomonas putida, UniProt P00183, C335A/Y97A); type: biochemical, P. putida; conditions: for Products(%) Y96A: label = product
T2 construct: reconstituted with putidaredoxin and putidaredoxin reductase
Experimental: as §1, §2, §3

[3] = target: T3, P450cam active site mutant Y96F (also C334A) (Pseudomonas putida, UniProt P00183, C335A/Y97F); type: biochemical, P. putida; conditions: for Products(%) Y96F: label = product
T3 construct: reconstituted with putidaredoxin and putidaredoxin reductase
Experimental: as §1, §2, §3

[4] = target: T4, P450cam active site mutant Y96L (also C334A) (Pseudomonas putida, UniProt P00183, C335A/Y97L); type: biochemical, P. putida; conditions: for Products (%) Y96L: label = product
T4 construct: reconstituted with putidaredoxin and putidaredoxin reductase
Experimental: as §1, §2, §3

[5] = target: T5, P450cam active site mutant Y96V (also C334A) (Pseudomonas putida, UniProt P00183, C335A/Y97V); type: biochemical, P. putida; conditions: for Products (%) Y96V: label = product
T5 construct: reconstituted with putidaredoxin and putidaredoxin reductase
Experimental: as §1, §2, §3

[6] = target: T6, P450cam active site mutant F87A-F96G-F193A (Pseudomonas putida, UniProt P00183, C335A/F194A/F88A/Y97G); type: biochemical, P. putida; conditions: for Products (%) F87A-F96G-F193A: label = product
T6 construct: reconstituted with putidaredoxin and putidaredoxin reductase
Experimental: as §1, §2, §3

[7] = target: T7, Wild type P450cam (Pseudomonas putida, UniProt P00183); assay: Turnover rate measured as NADH consumption rate; type: biochemical, P. putida; conditions: small alkanes; background about 0.07
Experimental: as §1, §3
(§4) Turnover rate measured as NADH consumption rate
(§5) (nmole NADH/nmole P450cam/s).

[8] = target: T8, P450cam Y96A (also contains the C334A mutation) (Pseudomonas putida, UniProt P00183, C335A/Y97A); type: biochemical, P. putida; conditions: small alkanes
T8 construct: reconstituted with putidaredoxin and putidaredoxin reductase
Experimental: as §1, §3, §4, §5

[9] = target: T7, Wild type P450cam; type: binding, P. putida; conditions: for Wild type ΔSpin high/low: -- = no shift, nd = not determined
[10] = target: P450cam Mutant Y96A (Pseudomonas putida, UniProt P00183, C335A/Y97A); type: binding, P. putida
[11] = Protein dimerisation by anion exchange FPLC and gel filtration; type: physicochemical; conditions: Resource Q FPLC and Superose 12 gel filtration; C334A even at high concentrations (0.1 mM range)
Description: We concluded that wild-type P-450cam underwent dimerisation by intermolecular S--S disulphide bond formation between the surface cysteine 334 on two protein molecules.

[12] = Protein aggregation upon standing/storage; type: physicochemical; conditions: for dimerisation and aggregation upon storage: storage at 4° C., and even in 50% glycerol solutions at -20° C.
Description: The C334A mutation has the obvious benefit of removing unwanted protein dimerisation, thus ensuring the presence of a single species in solution at all times. In addition, we noted a completely unexpected benefit of this mutation. […] Aggregation will also occur during turnover, especially at the higher P-450cam concentrations required in any economically viable industrial application in, for example, synthesis of organic molecules. […] Thus, the C334A mutation has beneficial effects in protein handling, storage, and increased catalyst lifetime.

[13] = -- = no shift, nd = not determined

T3 sequence (P16640 whole entry): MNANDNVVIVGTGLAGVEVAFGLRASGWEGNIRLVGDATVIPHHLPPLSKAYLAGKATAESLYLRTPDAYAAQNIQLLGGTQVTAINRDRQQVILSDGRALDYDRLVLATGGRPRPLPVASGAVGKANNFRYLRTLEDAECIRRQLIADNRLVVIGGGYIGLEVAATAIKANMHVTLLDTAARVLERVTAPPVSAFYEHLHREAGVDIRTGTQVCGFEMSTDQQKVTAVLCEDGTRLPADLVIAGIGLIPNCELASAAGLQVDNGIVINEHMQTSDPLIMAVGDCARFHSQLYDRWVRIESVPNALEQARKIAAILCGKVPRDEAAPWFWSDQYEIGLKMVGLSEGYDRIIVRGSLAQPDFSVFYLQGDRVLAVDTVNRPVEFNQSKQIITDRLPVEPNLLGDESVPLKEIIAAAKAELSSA
T3 sequence (P00183 2-415 Y97F/C335A): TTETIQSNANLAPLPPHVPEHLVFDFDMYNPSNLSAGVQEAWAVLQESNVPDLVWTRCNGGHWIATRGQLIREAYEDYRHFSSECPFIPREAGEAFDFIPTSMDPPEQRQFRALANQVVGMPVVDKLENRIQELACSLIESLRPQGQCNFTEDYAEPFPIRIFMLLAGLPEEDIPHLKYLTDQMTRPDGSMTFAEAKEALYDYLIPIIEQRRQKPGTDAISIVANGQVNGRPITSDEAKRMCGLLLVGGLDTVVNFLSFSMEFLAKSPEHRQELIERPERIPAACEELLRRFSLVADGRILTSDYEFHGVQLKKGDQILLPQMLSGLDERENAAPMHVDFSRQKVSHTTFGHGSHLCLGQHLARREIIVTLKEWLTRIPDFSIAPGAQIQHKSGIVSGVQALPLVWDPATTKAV
T3 sequence (P00259 whole entry, further chain): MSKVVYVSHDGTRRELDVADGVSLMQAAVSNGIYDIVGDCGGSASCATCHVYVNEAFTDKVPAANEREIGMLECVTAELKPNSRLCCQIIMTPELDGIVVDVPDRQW
Sequence of P450cam Mutant Y96A (P00183 2-415 Y97A/C335A): as the sequence (P00183 2-415 Y97F/C335A) above, with F96A counted along it
Sequence of P450cam Mutant Y96A (P16640 whole entry, further chain): as the sequence (P16640 whole entry) above
Sequence of P450cam Mutant Y96A (P00259 whole entry, further chain): as the sequence (P00259 whole entry, further chain) above
T2 sequence (P00183 2-415 Y97A/C335A): as the sequence (P00183 2-415 Y97F/C335A) above, with F96A counted along it
T2 sequence (P00259 whole entry, further chain): as the sequence (P00259 whole entry, further chain) above
T2 sequence (P16640 whole entry, further chain): as the sequence (P16640 whole entry) above
T8 sequence (P00183 2-415 Y97A/C335A): as the sequence (P00183 2-415 Y97F/C335A) above, with F96A counted along it
T8 sequence (P16640 whole entry, further chain): as the sequence (P16640 whole entry) above
T8 sequence (P00259 whole entry, further chain): as the sequence (P00259 whole entry, further chain) above
T7 sequence (P00183 whole entry): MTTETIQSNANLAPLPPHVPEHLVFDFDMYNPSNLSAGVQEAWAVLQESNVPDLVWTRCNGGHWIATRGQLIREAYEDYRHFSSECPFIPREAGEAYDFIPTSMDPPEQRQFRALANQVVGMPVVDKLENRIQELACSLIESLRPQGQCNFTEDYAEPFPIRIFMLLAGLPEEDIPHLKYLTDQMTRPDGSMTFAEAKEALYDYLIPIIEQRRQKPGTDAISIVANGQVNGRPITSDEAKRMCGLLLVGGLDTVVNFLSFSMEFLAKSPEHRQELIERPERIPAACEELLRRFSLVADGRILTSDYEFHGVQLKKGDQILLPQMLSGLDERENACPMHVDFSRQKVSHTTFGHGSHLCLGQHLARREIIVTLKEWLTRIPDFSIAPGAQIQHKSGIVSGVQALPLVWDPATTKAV
T7 sequence (P00259 whole entry, further chain): as the sequence (P00259 whole entry, further chain) above
T7 sequence (P16640 whole entry, further chain): as the sequence (P16640 whole entry) above
T1 sequence (P00259 whole entry): as the sequence (P00259 whole entry, further chain) above
T1 sequence (P16640 whole entry, further chain): as the sequence (P16640 whole entry) above
T1 sequence (P00183 whole entry): as the sequence (P00183 whole entry) above
T6 sequence (P00259 whole entry): as the sequence (P00259 whole entry, further chain) above
T6 sequence (P00183 2-415 F88A/Y97G/F194A/C335A): as the sequence (P00183 2-415 Y97F/C335A) above, with F87A, F96G, F193A counted along it
T6 sequence (P16640 whole entry, further chain): as the sequence (P16640 whole entry) above
T4 sequence (P00183 2-415 Y97L/C335A): as the sequence (P00183 2-415 Y97F/C335A) above, with F96L counted along it
T4 sequence (P16640 whole entry, further chain): as the sequence (P16640 whole entry) above
T4 sequence (P00259 whole entry, further chain): as the sequence (P00259 whole entry, further chain) above
T5 sequence (P00183 2-415 Y97V/C335A): as the sequence (P00183 2-415 Y97F/C335A) above, with F96V counted along it
T5 sequence (P00259 whole entry, further chain): as the sequence (P00259 whole entry, further chain) above
T5 sequence (P16640 whole entry, further chain): as the sequence (P16640 whole entry) above

OC1CCCC(c2ccccc2)C1 (single isomer, unassigned) [3-ol]
Products (%) WT ([1]; substrate cyclohexylbenzene): 43% | Products(%) Y96A ([2]; substrate cyclohexylbenzene): 20% | Products(%) Y96F ([3]; substrate cyclohexylbenzene): 54% | Products (%) Y96L ([4]; substrate cyclohexylbenzene): 38% | Products (%) Y96V ([5]; substrate cyclohexylbenzene): 28%

Oc1cccc2ccccc12 [1-ol]
Products (%) WT ([1]; substrate naphthalene): 100% | Products (%) F87A-F96G-F193A ([6]; substrate naphthalene): 100% | Products(%) Y96A ([2]; substrate naphthalene): 100% | Products(%) Y96F ([3]; substrate naphthalene): 100% | Products (%) Y96L ([4]; substrate naphthalene): 100% | Products (%) Y96V ([5]; substrate naphthalene): 100%

CCCCC(C)C [2-methyl hexane]
Turnover rate (NADH consumption rate) Wild type [7]: background | Turnover rate (NADH consumption rate) Y96A [8]: 10.6 nmole NADH/nmole P450cam/s | Relative activity (WT = 1) Y96A ([2]; substrate 2-methyl hexane): 2.6 | Relative activity (WT = 1) Y96F ([3]; substrate 2-methyl hexane): 2.3

Oc1ccc2ccccc2c1 [2-ol]
Products (%) WT ([1]; substrate naphthalene): 0% | Products (%) F87A-F96G-F193A ([6]; substrate naphthalene): 0% | Products(%) Y96A ([2]; substrate naphthalene): 0% | Products(%) Y96F ([3]; substrate naphthalene): 0% | Products (%) Y96L ([4]; substrate naphthalene): 0% | Products (%) Y96V ([5]; substrate naphthalene): 0%

OC1C=C(c2ccccc2)CCC1 (stereo not drawn) [3-ol (B)]
Products (%) WT ([1]; substrate phenylcyclohexene): 76% | Products(%) Y96A ([2]; substrate phenylcyclohexene): 75%

O=C1C=C(c2ccccc2)CCC1 [3-one (A)]
Products (%) WT ([1]; substrate phenylcyclohexene): 24% | Products(%) Y96A ([2]; substrate phenylcyclohexene): 25%

O[C@H]1CC[C@@H](c2ccccc2)CC1 [Cis-4-ol]
Products (%) WT ([1]; substrate cyclohexylbenzene): 12% | Products(%) Y96A ([2]; substrate cyclohexylbenzene): 45% | Products(%) Y96F ([3]; substrate cyclohexylbenzene): 13% | Products (%) Y96L ([4]; substrate cyclohexylbenzene): 16% | Products (%) Y96V ([5]; substrate cyclohexylbenzene): 23%

c1ccc(C2CCCCC2)cc1 [Cyclohexylbenzene]
Wild type Vs DTT [9]: 20 | Wild type ΔSpin high/low [9]: 20 | Mutant Y96A ΔSpin high/low [10, 13]: 80 | Total products WT ([1]; substrate cyclohexylbenzene): 0.8 area/10^5 | Total products Y96A ([2]; substrate cyclohexylbenzene): 7.4 area/10^5 | Total products Y96F ([3]; substrate cyclohexylbenzene): 1.1 area/10^5 | Total products Y96L ([4]; substrate cyclohexylbenzene): 10.4 area/10^5 | Total products Y96V ([5]; substrate cyclohexylbenzene): 12.5 area/10^5

c1ccc2c(c1)-c1cccc3cccc-2c13 [Fluoranthene]
Wild type Vs DTT [9]: 5 | Mutant Y96A Vs DTT [10]: 10 | Mutant Y96A ΔSpin high/low [10]: 20 | Total products WT ([1]; substrate fluoranthene): 0 area/10^6 | Total products F87A-F96G-F193A ([6]; substrate fluoranthene): 0.2 area/10^6 | Total products Y96A ([2]; substrate fluoranthene): 2.7 area/10^6

CCCCCC [Hexane]
Mutant Y96A Vs DTT [10]: 60 and 40 | Mutant Y96A ΔSpin high/low [10]: 70 and 60 | Turnover rate (NADH consumption rate) Wild type [7]: background | Turnover rate (NADH consumption rate) Y96A [8]: 6.0 nmole NADH/nmole P450cam/s | Relative activity (WT = 1) Y96A ([2]; substrate hexane): 25.5 | Relative activity (WT = 1) Y96F ([3]; substrate hexane): 18.2

OC1CCCC(c2ccccc2)C1 (stereo not drawn) [L or D 3-ol]
Products (%) WT ([1]; substrate cyclohexylbenzene): 20% | Products(%) Y96A ([2]; substrate cyclohexylbenzene): 20% | Products(%) Y96F ([3]; substrate cyclohexylbenzene): 27% | Products (%) Y96L ([4]; substrate cyclohexylbenzene): 23% | Products (%) Y96V ([5]; substrate cyclohexylbenzene): 39%

c1ccc2ccccc2c1 [Naphthalene]
Mutant Y96A Vs DTT [10]: 20 | Mutant Y96A ΔSpin high/low [10, 13]: 15 | Total products WT ([1]; substrate naphthalene): 0.016 area/10^5 | Total products F87A-F96G-F193A ([6]; substrate naphthalene): 0.1 area/10^5 | Total products Y96A ([2]; substrate naphthalene): 1.1 area/10^5 | Total products Y96F ([3]; substrate naphthalene): 2.4 area/10^5 | Total products Y96L ([4]; substrate naphthalene): 0.7 area/10^5 | Total products Y96V ([5]; substrate naphthalene): 1.4 area/10^5

c1cc2ccc3cccc4ccc(c1)c2c34 [Pyrene]
Total products WT ([1]; substrate pyrene): 0 area/10^6 | Total products F87A-F96G-F193A ([6]; substrate pyrene): 0.02 area/10^6 | Total products Y96A ([2]; substrate pyrene): 1.2 area/10^6 | Total products Y96F ([3]; substrate pyrene): 1.5 area/10^6 | Total products Y96L ([4]; substrate pyrene): 1.5 area/10^6 | Total products Y96V ([5]; substrate pyrene): 1.6 area/10^6

O[C@H]1CC[C@H](c2ccccc2)CC1 [Trans-4-ol]
Products (%) WT ([1]; substrate cyclohexylbenzene): 25% | Products(%) Y96A ([2]; substrate cyclohexylbenzene): 15% | Products(%) Y96F ([3]; substrate cyclohexylbenzene): 6% | Products (%) Y96L ([4]; substrate cyclohexylbenzene): 23% | Products (%) Y96V ([5]; substrate cyclohexylbenzene): 10%

CCCCCCC [n-Heptane]
Wild type Vs DTT [9]: 5 | Wild type ΔSpin high/low [9]: 5 | Mutant Y96A Vs DTT [10]: 40 | Mutant Y96A ΔSpin high/low [10, 13]: 60 | Turnover rate (NADH consumption rate) Wild type [7]: 2.7 nmole NADH/nmole P450cam/s | Turnover rate (NADH consumption rate) Y96A [8]: 4.4 nmole NADH/nmole P450cam/s

CCCCCCCC [n-Octane]
Wild type Vs DTT [9]: 5 | Mutant Y96A Vs DTT [10]: 45 | Mutant Y96A ΔSpin high/low [10, 13]: 80 | Turnover rate (NADH consumption rate) Wild type [7]: background | Turnover rate (NADH consumption rate) Y96A [8]: 5.8 nmole NADH/nmole P450cam/s

CCCCC [n-Pentane]
Wild type Vs DTT [9]: 5 | Mutant Y96A Vs DTT [10]: 40 | Mutant Y96A ΔSpin high/low [10, 13]: 55 | Turnover rate (NADH consumption rate) Wild type [7]: background | Turnover rate (NADH consumption rate) Y96A [8]: 5.8 nmole NADH/nmole P450cam/s

B1: wild-type P-450cam: mono-oxygenase cytochrome P-450cam from P. putida (protein, UniProt P00183 2-415, looked up)
Camphor 5-monooxygenase: TTETIQSNANLAPLPPHVPEHLVFDFDMYNPSNLSAGVQEAWAVLQESNVPDLVWTRCNGGHWIATRGQLIREAYEDYRHFSSECPFIPREAGEAYDFIPTSMDPPEQRQFRALANQVVGMPVVDKLENRIQELACSLIESLRPQGQCNFTEDYAEPFPIRIFMLLAGLPEEDIPHLKYLTDQMTRPDGSMTFAEAKEALYDYLIPIIEQRRQKPGTDAISIVANGQVNGRPITSDEAKRMCGLLLVGGLDTVVNFLSFSMEFLAKSPEHRQELIERPERIPAACEELLRRFSLVADGRILTSDYEFHGVQLKKGDQILLPQMLSGLDERENACPMHVDFSRQKVSHTTFGHGSHLCLGQHLARREIIVTLKEWLTRIPDFSIAPGAQIQHKSGIVSGVQALPLVWDPATTKAV
presence of protein dimer [11]: dimer was detected | dimerisation and aggregation upon storage [12]: dimerisation as well as aggregation

B2: C58A: P-450cam surface mutant, cysteine 58 substituted to alanine (protein, UniProt P00183 2-415, looked up, variant C58A)
Camphor 5-monooxygenase: B1 Camphor 5-monooxygenase with C58A
presence of protein dimer [11]: dimer was detected | dimerisation and aggregation upon storage [12]: dimerisation as well as aggregation

B3: C136A: P-450cam surface mutant, cysteine 136 substituted to alanine (protein, UniProt P00183 2-415, looked up, variant C136A)
Camphor 5-monooxygenase: B1 Camphor 5-monooxygenase with C136A
presence of protein dimer [11]: dimer was detected | dimerisation and aggregation upon storage [12]: dimerisation as well as aggregation

B4: C85A: P-450cam surface mutant, cysteine 85 substituted to alanine (protein, UniProt P00183 2-415, looked up, variant C85A)
Camphor 5-monooxygenase: B1 Camphor 5-monooxygenase with C85A
presence of protein dimer [11]: dimer was detected | dimerisation and aggregation upon storage [12]: dimerisation as well as aggregation

B5: C148A: P-450cam surface mutant, cysteine 148 substituted to alanine (protein, UniProt P00183 2-415, looked up, variant C148A)
Camphor 5-monooxygenase: B1 Camphor 5-monooxygenase with C148A
presence of protein dimer [11]: dimer was detected | dimerisation and aggregation upon storage [12]: dimerisation as well as aggregation

B6: C334A: P-450cam surface mutant, cysteine 334 substituted to alanine (protein, UniProt P00183 2-415, looked up, variant C334A)
Camphor 5-monooxygenase: B1 Camphor 5-monooxygenase with C334A
presence of protein dimer [11]: no dimer was detected | aggregation ([12]; mM concentrations at room temperature over a period of three days): did not show any evidence of aggregation
